Source: patent US11685729B2, “C5a receptor modulators” (IDORSIA PHARMACEUTICALS LTD., priority 2018, dated 2023)

biological target: C5AR1 (Homo sapiens (Human), UniProt P21730); assay: In vitro assay: PathHunter beta-arrestin antagonist assay in CHO-K1 C5AR1 beta-arrestin cell line, stimulated with C5a agonist; details: read-out: C5aR IC50; CHO-K1 C5AR1 beta-arrestin cell line; 1-10 nM C5a agonist; geometric mean values
Sequence (P21730 whole entry): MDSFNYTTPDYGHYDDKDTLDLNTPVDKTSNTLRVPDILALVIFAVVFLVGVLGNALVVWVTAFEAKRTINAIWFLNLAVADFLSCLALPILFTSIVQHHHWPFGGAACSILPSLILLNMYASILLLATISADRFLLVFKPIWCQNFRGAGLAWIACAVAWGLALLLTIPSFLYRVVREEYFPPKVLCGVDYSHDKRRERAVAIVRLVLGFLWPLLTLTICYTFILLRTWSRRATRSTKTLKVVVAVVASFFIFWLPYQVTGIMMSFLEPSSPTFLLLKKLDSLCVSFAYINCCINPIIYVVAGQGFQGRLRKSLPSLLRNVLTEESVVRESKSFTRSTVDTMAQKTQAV
Procedure: 5 μl Antagonist at 6-fold end concentration or DMSO control is added to assay medium and subsequently 5 μl 1-10 nM C5a agonist at 6 fold end concentration. Cells are centrifuged for 1 min at 1000 rpm and incubated for 1.5 hour in at 37° C. Plates are equilibrated at room temperature for several minutes before adding 12 μI/well Detection Reagent (PathHunter Detection Kit, DiscoverX, Cat #93-0001). Plates are centrifuged for 1 min at 1000 rpm and incubated for 45 minutes at RT before being measured on a Fluostar Optima, BMG Labtech. IC50 values are calculated from a serial dilution range of antagonist using inhouse software and given in nmol/l.
The calculated IC50 values may fluctuate depending on the daily cellular assay performance. […] Average IC50 values from several measurements are given as geometric mean values.

Point of comparison: `COc1ccccc1N1CCC(N2Cc3ccccc3N(Cc3ccccc3C(F)(F)F)C2=O)CC1` [Example 6, 3-[1-(2-Methoxy-phenyl)-piperidin-4-yl]-1-(2-trifluoromethyl-benzyl)-3,4-dihydro-1H-quinazolin-2-one], IC50 245 nM. Against it:
- Cc1cccc(F)c1N1CCC(N2Cc3ccccc3N(Cc3ccccc3OCC#N)C2=O)CC1 [Example 55, (2-{3-[1-(2-Fluoro-6-methyl-phenyl)-piperidin-4-yl]-2-oxo-3,4-dihydro-2H-quinazolin-1-ylmethyl}-phenoxy)-acetonitrile] — 2.1-fold higher, 512 nM
- Cc1cccc(F)c1N1CCC(N2Cc3ccccc3N(Cc3ccccc3OCCN(C)C)C2=O)CC1 [Example 47, 1-[2-(2-Dimethylamino-ethoxy)-benzyl]-3-[1-(2-fluoro-6-methyl-phenyl)-piperidin-4-yl]-3,4-dihydro-1H-quinazolin-2-one] — 6.8-fold higher, 1660 nM
- COc1cccc(F)c1N1CC[C@@H](N2Cc3ccccc3N(Cc3ccccc3C(F)(F)F)C2=O)C1 [Example 21, 3-[(R)-1-(2-Fluoro-6-methoxy-phenyl)-pyrrolidin-3-yl]-1-(2-trifluoromethyl-benzyl)-3,4-dihydro-1H-quinazolin-2-one] — 6.6-fold lower, 37 nM
- Cc1cccc(F)c1N1CCC(N2Cc3ccccc3N(Cc3cnccc3C(C)C)C2=O)CC1 [Example 61, 3-[1-(2-Fluoro-6-methyl-phenyl)-piperidin-4-yl]-1-(4-isopropyl-pyridin-3-ylmethyl)-3,4-dihydro-1H-quinazolin-2-one] — 6.8-fold lower, 36 nM
- COc1ccccc1N1CC[C@@H](N2Cc3cccc(OC)c3N(Cc3ccccc3C(F)(F)F)C2=O)C1 [Example 10, 8-Methoxy-3-[(R)-1-(2-methoxy-phenyl)-pyrrolidin-3-yl]-1-(2-trifluoromethyl-benzyl)-3,4-dihydro-1H-quinazolin-2-one] — 7.6-fold higher, 1870 nM
- O=C1N(Cc2ccccc2C(F)(F)F)c2ccccc2CN1C1CCN(c2c(F)cccc2OC(F)(F)F)CC1 [Example 78, 3-[1-(2-Fluoro-6-trifluoromethoxy-phenyl)-piperidin-4-yl]-1-(2-trifluoromethyl-benzyl)-3,4-dihydro-1H-quinazolin-2-one] — 3.1-fold lower, 80 nM
- Cc1nn(C)c(N2CCC(N3Cc4ccccc4N(Cc4ccccc4C(F)(F)F)C3=O)CC2)c1C#N [Example 72, 1,3-Dimethyl-5-{4-[2-oxo-1-(2-trifluoromethyl-benzyl)-1,4-dihydro-2H-quinazolin-3-yl]-piperidin-1-yl}-1H-pyrazole-4-carbonitrile] — 11-fold higher, 2660 nM
- COc1cccc2c1N(Cc1ccccc1C(F)(F)F)C(=O)N([C@@H]1CCN(c3c(C)cccc3C)C1)C2 [Example 9, 3-[(R)-1-(2,6-Dimethyl-phenyl)-pyrrolidin-3-yl]-8-methoxy-1-(2-trifluoromethyl-benzyl)-3,4-dihydro-1H-quinazolin-2-one] — 9.8-fold lower, 25 nM
- CC(=O)OCCOc1ccccc1CN1C(=O)N(C2CCN(c3c(C)cccc3F)CC2)Cc2ccccc21 [Example 48, Acetic acid 2-(2-{3-[1-(2-fluoro-6-methyl-phenyl)-piperidin-4-yl]-2-oxo-3,4-dihydro-2H-quinazolin-1-ylmethyl}-phenoxy)-ethyl ester] — within 1.5-fold, 298 nM
- COc1ccccc1CN1C(=O)N([C@@H]2CCN(c3c(C)cccc3F)C2)Cc2ccccc21 [Example 35, 3-[(R)-1-(2-Fluoro-6-methyl-phenyl)-pyrrolidin-3-yl]-1-(2-methoxy-benzyl)-3,4-dihydro-1H-quinazolin-2-one] — 5.7-fold lower, 43 nM
- O=C1N(Cc2ccccc2C(F)(F)F)c2ccccc2CN1[C@H]1CCN(c2c(F)cccc2F)C1 [Example 15, 3-[(S)-1-(2,6-Difluoro-phenyl)-pyrrolidin-3-yl]-1-(2-trifluoromethyl-benzyl)-3,4-dihydro-1H-quinazolin-2-one] — 3.5-fold higher, 847 nM
- Cc1cccc(F)c1N1CCC(N2Cc3ccccc3N(Cc3ccccc3C(C)C)C2=O)CC1 [Example 57, 3-[1-(2-Fluoro-6-methyl-phenyl)-piperidin-4-yl]-1-(2-isopropyl-benzyl)-3,4-dihydro-1H-quinazolin-2-one] — 10-fold lower, 24 nM
- COc1cccc(C)c1N1CC[C@@H](N2Cc3ccccc3N(Cc3ccccc3C(F)(F)F)C2=O)C1 [Example 27, 3-[(R)-1-(2-Methoxy-6-methyl-phenyl)-pyrrolidin-3-yl]-1-(2-trifluoromethyl-benzyl)-3,4-dihydro-1H-quinazolin-2-one] — 6.6-fold lower, 37 nM
- COc1nccc(C)c1N1CCC(N2Cc3ccccc3N(Cc3ccccc3C(F)(F)F)C2=O)CC1 [Example 29, 3-(2′-Methoxy-4′-methyl-3,4,5,6-tetrahydro-2H-[1,3′]bipyridinyl-4-yl)-1-(2-trifluoromethyl-benzyl)-3,4-dihydro-1H-quinazolin-2-one] — 7-fold lower, 35 nM
- Cc1cccc(F)c1N1CCC(N2Cc3ccccc3N(Cc3nccnc3C(C)C)C2=O)CC1 [Example 62, 3-[1-(2-Fluoro-6-methyl-phenyl)-piperidin-4-yl]-1-(3-isopropyl-pyrazin-2-ylmethyl)-3,4-dihydro-1H-quinazolin-2-one] — 6.4-fold lower, 38 nM
- COc1cccc(C)c1N1CCC(N2Cc3ccccc3N(Cc3ccccc3C(F)(F)F)C2=O)CC1 [Example 23, 3-[1-(2-Methoxy-6-methyl-phenyl)-piperidin-4-yl]-1-(2-trifluoromethyl-benzyl)-3,4-dihydro-1H-quinazolin-2-one] — 7.7-fold lower, 32 nM
- COc1cccc(F)c1N1CCC(N2Cc3ccccc3N(Cc3ccccc3C(F)(F)F)C2=O)CC1 [Example 7, 3-[1-(2-Fluoro-6-methoxy-phenyl)-piperidin-4-yl]-1-(2-trifluoromethyl-benzyl)-3,4-dihydro-1H-quinazolin-2-one] — 4.2-fold lower, 58 nM
- COc1ccccc1C(C)N1C(=O)N(C2CCN(c3c(C)cccc3F)CC2)Cc2ccccc21 (stereo not drawn) [Example 40, 3-[1-(2-Fluoro-6-methyl-phenyl)-piperidin-4-yl]-1-[1-(2-methoxy-phenyl)-ethyl]-3,4-dihydro-1H-quinazolin-2-one] — 1.8-fold lower, 135 nM
- COc1ccccc1N1CC[C@H](N2Cc3ccccc3N(Cc3ccccc3C(F)(F)F)C2=O)C1 [Example 16, 3-[(S)-1-(2-Methoxy-phenyl)-pyrrolidin-3-yl]-1-(2-trifluoromethyl-benzyl)-3,4-dihydro-1H-quinazolin-2-one] — 2.6-fold higher, 635 nM
- COc1ccccc1CN1C(=O)N(C2CCN(c3c(C)cccc3C)CC2)Cc2ccccc21 [Example 36, 3-[1-(2,6-Dimethyl-phenyl)-piperidin-4-yl]-1-(2-methoxy-benzyl)-3,4-dihydro-1H-quinazolin-2-one] — within 1.5-fold, 199 nM
- Cc1cccc(F)c1N1CCC(N2Cc3ccccc3N(C(C)c3ccccc3C(F)(F)F)C2=O)CC1 (stereo not drawn) [Example 45, 3-[1-(2-Fluoro-6-methyl-phenyl)-piperidin-4-yl]-1-[1-(2-trifluoromethyl-phenyl)-ethyl]-3,4-dihydro-1H-quinazolin-2-one] — within 1.5-fold, 191 nM
- COc1ccccc1CN1C(=O)N([C@@H]2CCN(c3c(C)cccc3C)C2)Cc2ccccc21 [Example 34, 3-[(R)-1-(2,6-Dimethyl-phenyl)-pyrrolidin-3-yl]-1-(2-methoxy-benzyl)-3,4-dihydro-1H-quinazolin-2-one] — 2.1-fold lower, 116 nM
- Cc1ccnc(F)c1N1CCC(N2Cc3ccccc3N(Cc3ccccc3C(F)(F)F)C2=O)CC1 [Example 30, 3-(2′-Fluoro-4′-methyl-3,4,5,6-tetrahydro-2H-[1,3′]bipyridinyl-4-yl)-1-(2-trifluoromethyl-benzyl)-3,4-dihydro-1H-quinazolin-2-one] — 5.4-fold lower, 45 nM
- Cc1cccc(F)c1N1CCC(N2Cc3ccccc3N(Cc3ccccc3OCC3CC3)C2=O)CC1 [Example 54, 1-(2-Cyclopropylmethoxy-benzyl)-3-[1-(2-fluoro-6-methyl-phenyl)-piperidin-4-yl]-3,4-dihydro-1H-quinazolin-2-one] — 3.7-fold lower, 66 nM
- Cc1cccc(F)c1N1CCC(N2Cc3ccnnc3N(Cc3ccccc3C(F)(F)F)C2=O)CC1 [Example 41, 6-[1-(2-Fluoro-6-methyl-phenyl)-piperidin-4-yl]-8-(2-trifluoromethyl-benzyl)-5,8-dihydro-6H-pyrimido[4,5-c]pyridazin-7-one] — 2.2-fold lower, 109 nM
- COc1cccc(C)c1N1CC[C@@H](N2Cc3cccc(OC)c3N(Cc3ccccc3C(F)(F)F)C2=O)C1 [Example 22, 8-Methoxy-3-[(R)-1-(2-methoxy-6-methyl-phenyl)-pyrrolidin-3-yl]-1-(2-trifluoromethyl-benzyl)-3,4-dihydro-1H-quinazolin-2-one] — 4.7-fold lower, 52 nM
- Cc1cccc(F)c1N1CCCC(N2Cc3ccccc3N(Cc3ccccc3C(F)(F)F)C2=O)CC1 (stereo not drawn) [Example 77, 3-[1-(2-Fluoro-6-methyl-phenyl)-azepan-4-yl]-1-(2-trifluoromethyl-benzyl)-3,4-dihydro-1H-quinazolin-2-one] — within 1.5-fold, 175 nM
- Cc1cccc(F)c1N1CCC(N2Cc3ccccc3N(Cc3ccccc3OC(C)C)C2=O)CC1 [Example 44, 3-[1-(2-Fluoro-6-methyl-phenyl)-piperidin-4-yl]-1-(2-isopropoxy-benzyl)-3,4-dihydro-1H-quinazolin-2-one] — 7.4-fold lower, 33 nM
- Cc1cccc(F)c1N1CCC(N2Cc3ccccc3N(Cc3nccnc3OC(C)C)C2=O)CC1 [Example 59, 3-[1-(2-Fluoro-6-methyl-phenyl)-piperidin-4-yl]-1-(3-isopropoxy-pyrazin-2-ylmethyl)-3,4-dihydro-1H-quinazolin-2-one] — 6.4-fold lower, 38 nM
- Cc1nc(C(F)(F)F)c(CN2C(=O)N(C3CCN(c4c(C)cccc4F)CC3)Cc3ccccc32)s1 [Example 83, 3-[1-(2-Fluoro-6-methyl-phenyl)-piperidin-4-yl]-1-(2-methyl-4-trifluoromethyl-thiazol-5-ylmethyl)-3,4-dihydro-1H-quinazolin-2-one] — 5.4-fold higher, 1320 nM
- COc1cccc(F)c1N1CC[C@@H](N2Cc3cccc(OC)c3N(Cc3ccccc3C(F)(F)F)C2=O)C1 [Example 11, 3-[(R)-1-(2-Fluoro-6-methoxy-phenyl)-pyrrolidin-3-yl]-8-methoxy-1-(2-trifluoromethyl-benzyl)-3,4-dihydro-1H-quinazolin-2-one] — within 1.5-fold, 219 nM
- Cc1cccc(F)c1N1CCC(N2Cc3ccccc3N(Cc3ccccc3OC3COC3)C2=O)CC1 [Example 51, 3-[1-(2-Fluoro-6-methyl-phenyl)-piperidin-4-yl]-1-[2-(oxetan-3-yloxy)-benzyl]-3,4-dihydro-1H-quinazolin-2-one] — 2.2-fold lower, 113 nM
